# Assay results: patent publication US8058039B2 (North American Bioproducts Corporation, priority 2008, dated 2011)
# “And” between values parts separate entries of the source, which are not always exact repeats. Equal values may be shown once.
# Tests used:
# Type in all cases: cell-based
# [1] = tested on: Pediococcus test organism along with “industry normal” Lactobacillus; assay: Virginiamycin (V100) vs. Erythromycin (V200) comparative efficacy analysis, 24 well plate growth test in MRS broth; conditions: 33° C., read at 24 and 48 hours
# From the text: (§1) The antibiotics currently most often used at alcohol production plants are either Penicillin-based or Virginiamycin-based. This example compares the use of Bactenix V200, an Erythromycin-based antibiotic versus V100, a Virginiamycin-based antibiotic also available from NABC to control Pediococcus test organism along with “industry normal” Lactobacillus. The trial uses an alcohol water mixture to assure total dissolving of antibiotics. This assures that the correct concentrations of antibiotics are going into the test wells and thereby preventing under dosing during the trial. All bacteria tested were industry specific isolates that were obtained from actual mash samples from alcohol production plants. The trial was set up as follows: • 1. Dissolve 0.1 g of each of the antibiotics in 1 ml water and then add 5 ml of ethanol, vortex and bring up to 10 ml with sterile water to from a suspension. • 2. Dilute the previous suspension 1:10 with sterile water. This gives a one mg/ml concentration. • 3. Filter the suspension by running through a 0.2 μm syringe filter. • 4. Add antibiotics to MRS (DeMan, Rogosa and Sharpe) broth at the concentrations required for the test. • 5. Take two μl of a fresh 24-hour culture of the target organisms and add to the corresponding empty wells in a pre-labeled 24 well tissue culture plate. • 6. Add one ml of the appropriate antibiotic media to each well of the plate. • 7. Incubate at 33° C. for 24 hours. • 8. Read plates for bacterial growth and re-incubate the plates at 33° C. • 9. After 48 hours read and report the final results.
# [2] = tested on: bacteria encountered in ethanol production; assay: Alcohol production plant trial, fermentor drop data (corn, batch fermentation)
# Procedure: This trial was conducted at a 50 million gallon per year (m/g/y) dry grind fuel alcohol production facility utilizing corn as a fermentation substrate. Batch yeast propagation and fermentation process were utilized. Antimicrobials were added to the fermentor during the fill cycle at approximately 30% fill. No other changes were made to the process or chemical additions that would influence the fermentation kinetics monitored during 3 sets of fermentor batches listed below. The fermentation data was accumulated at the end (drop) of the fermentation process for each of the fermentors. […] See results in Table 2. […] See results in Table 3. […] See results in Table 4.
# [3] = tested on: Saccharomyces cerevisea yeast (BioFerm XR yeast); assay: Impact of Erythromycin on the function and replication of yeast during lab scale corn mash fermentation; conditions: for Cell Count: number of cells in a given area
# Procedure: A study was conducted to determine if the fermentation antimicrobial Erythromycin, interfered with cell growth and the fermentation function of Saccharomyces cerevisea yeast used in the fermentation phase of the production of fuel ethanol. […] This study looked at the ability of yeast to replicate and ferment a corn mash substrate with and without the presence of Erythromycin.
# This study was set up in a series of fermentation vessels. All antibiotic concentrations were tested in triplicate. Cell counts were done on one flask for each treatment at 24 and 48 hours and final testing of the fermentation reactions by HPLC was performed at 48 hours. The experiment was set as follows:
# 1. Antibiotic solutions were prepared to provide a sterile 1 and 10 μg/ml solutions.
# 2. Antibiotic solutions tested were as follows:
# A. Control (NA), no antibiotic
# 3. Fermentations were set up using 31% solids corn mash using saccharifying enzymes and the following procedure:
# A. Yeast Conditioning: • 1. Add 2 g yeast to 10 mil sterile water for each 3 flasks to test, (10 g yeast to 50 ml water) into a sterile 250 ml flask and place in water bath set to 100° F. • 2. Incubate at 100° F. for 30 minutes with occasional mixing. • 3. Remove flasks from water bath and divide suspension between the all flasks for the trial.
# B. Fermentation Procedure • 1. To prepared mash, add the following. • a. Add 0.58 g urea/liter mash and mix. • b. Add 0.2 ml GA per liter and mix. • 2. Remove sample for background HPLC testing. • 3. Add antibiotic solution to labeled sterile 250 ml flasks. • 4. Add hydrated yeast suspension to mash and mix well. • 5. Add sterile stir bar to each flask and add about 150 ml mash into each 250 ml flask for a total of 12 flasks. • Three flasks for each trial as follows: • a. First group, no antibiotic (NA) flasks 1-3 • b. […] Cover each flask with a gas trap in a sterilized stopper. • 7. Place in a 33° C. water bath with continuous mixing at 280 rpm at 75% power. • a. Turn power on to the magnetic stirrers after placing the flasks onto the platforms to move the stir bars; make sure that mixing is occurring in the flasks. • 8. Remove sample at 24 hours and perform cell count. • 9. Incubate sample for 48 hours, enough time for complete fermentation • 10. Collect samples at the following times for HPLC testing: • 0 hours (one per treatment); 24 hours; 48 hours • Perform 48 hour cell count on same flask as for 24 hour count.
# [4] = tested on: industry obtained Pediococcus bacteria; assay: Virginiamycin (V100) vs. Erythromycin (V200) comparative efficacy analysis, 24 well plate growth test in MRS broth; conditions: 33° C., read at 24 and 48 hours
# From the text: as §1
# [5] = 0.5 ppm Erythromycin vs 0.5 ppm Virginiamycin batches
# [6] = Set 2 vs Sets 1 and 3, same amount of antibiotic
# [7] = Set 2 “Erythromycin trial”, 0.5 ppm Erythromycin, at drop
# [8] = Set 1 “Pre Erythromycin trial”, 0.5 ppm Virginiamycin, at drop
# [9] = Set 3 “Post Erythromycin test”, 0.5 ppm Virginiamycin, at drop
# [10] = Set 3 “Post Erythromycin test”, 0.5 ppm Virginiamycin, single fermentor batch at drop
compound,measurement,setting,value
CC[C@H]1OC(=O)[C@H](C)[C@@H](O[C@H]2C[C@@](C)(OC)[C@@H](O)[C@H](C)O2)[C@H](C)[C@@H](O[C@@H]2O[C@H](C)C[C@H](N(C)C)[C@H]2O)[C@](C)(O)C[C@@H](C)C(=O)[C@H](C)[C@@H](O)[C@]1(C)O [Erythromycin],concentration effective against all organisms tested,[1],0.5 ppm
same,decrease of lactic acid production during the erythromycin trial,[2]; [5],0.23%
same,increase of ethanol production during the erythromycin trial,[2]; [5],0.17%
same,production increase of ethanol per fermentor,[2]; [5],816 gallons of ethanol per fermentor
same,final ethanol production compared to Virginiamycin fermentors,[2]; [6],increase in final ethanol production
same,glucose utilized compared to Virginiamycin fermentors,[2]; [6],utilized the same amount of glucose
same,lactic acid compared to Virginiamycin fermentors,[2]; [6],decrease in lactic acid
same,"Acetic %, 27 batch average",[2]; [7],0.04%
same,"EtOH %, 27 batch average",[2]; [7],15.84%
same,"Glucose %, 27 batch average",[2]; [7],0.30%
same,"Lactic %, 27 batch average",[2]; [7],0.27%
same,Acetic %,"[2]; Set 2 “Erythromycin trial”, 0.5 ppm Erythromycin, single fermentor batch at drop",0.03% and 0.04% and 0.05% and 0.02% and 0.06%
same,% Budding,"[3]; Erythromycin 5 ppm, 24 hr",8%
same,% Viable,"[3]; Erythromycin 5 ppm, 24 hr",82%
same,Cell Count,"[3]; Erythromycin 5 ppm, 24 hr",467
same,% Budding,"[3]; Erythromycin 5 ppm, 48 hr",5%
same,% Viable,"[3]; Erythromycin 5 ppm, 48 hr",63%
same,Cell Count,"[3]; Erythromycin 5 ppm, 48 hr",430
same,% Budding,"[3]; Erythromycin 10 ppm, 24 hr",8%
same,% Viable,"[3]; Erythromycin 10 ppm, 24 hr",80%
same,Cell Count,"[3]; Erythromycin 10 ppm, 24 hr",434
same,% Budding,"[3]; Erythromycin 10 ppm, 48 hr",5%
same,% Viable,"[3]; Erythromycin 10 ppm, 48 hr",61%
same,Cell Count,"[3]; Erythromycin 10 ppm, 48 hr",454
same,% Budding,"[3]; Erythromycin 20 ppm, 24 hr",7%
same,% Viable,"[3]; Erythromycin 20 ppm, 24 hr",85%
same,Cell Count,"[3]; Erythromycin 20 ppm, 24 hr",431
same,% Budding,"[3]; Erythromycin 20 ppm, 48 hr",4%
same,% Viable,"[3]; Erythromycin 20 ppm, 48 hr",62%
same,Cell Count,"[3]; Erythromycin 20 ppm, 48 hr",446
same,yeast growth with Erythromycin present vs without,[3]; at 48 hr,marginal better
same,adverse effect on the yeast,[3]; used up to 20 ppm,no discernable adverse effect
Virginiamycin,effectiveness against all organisms tested,[1],not effective against all organisms tested
same,inclusion rate up to which Pediococcus was not controlled,[4],> 3.0 ppm
same,"Acetic %, 28 batch average",[2]; [8],0.04%
same,"EtOH %, 28 batch average",[2]; [8],15.67%
same,"Glucose %, 28 batch average",[2]; [8],0.29%
same,"Lactic %, 28 batch average",[2]; [8],0.50%
same,Acetic %,"[2]; Set 1 “Pre Erythromycin trial”, 0.5 ppm Virginiamycin, single fermentor batch at drop",0.02% and 0.03% and 0.04% and 0.13% and 0.05%
same,"Acetic %, 8 batch average",[2]; [9],0.04%
same,"EtOH %, 8 batch average",[2]; [9],15.58%
same,"Glucose %, 8 batch average",[2]; [9],0.32%
same,"Lactic %, 8 batch average",[2]; [9],0.47%
same,Acetic %,[2]; [10],0.04% and 0.03% and 0.05%
same,EtOH %,[2]; [10],15.77% and 15.53% and 15.28% and 15.73% and 15.78% and 15.5% and 15.56% and 15.52%
same,Glucose %,[2]; [10],0.35% and 0.29% and 0.31% and 0.33% and 0.3% and 0.32%
same,Lactic %,[2]; [10],0.44% and 0.54% and 0.70% and 0.38% and 0.43% and 0.50% and 0.40%
